# Active and inactive are the calls of the source. The rule behind the calls is not given here.
# Key:
# Botrytis cinerea [1] = assay: Inhibition of respiratory activity in Botryotinia fuckeliana mycelium assessed as rate of oxygen consumption at 100 mg/L after 2 min by Clark-type oxygen electrode recording analysis; format: functional
# Botrytis cinerea [2] = assay: Depletion of total adenylate pool in Botryotinia fuckeliana mycelium at 80 mg/L after 24 to 48 hr by reverse phase HPLC analysis; format: functional, organism-based
# Botrytis cinerea [3] = assay: Fungicidal activity against Botryotinia fuckeliana grown on YGA medium assessed as inhibition of mycelial growth incubated for 4 days in the dark at 25 degC in presence of non-fermentable carbon source, glycerol; format: functional, organism-based; conditions: 96 h
# Botrytis cinerea [4] = assay: Fungistatic activity against Botryotinia fuckeliana grown in liquid medium assessed as increase in mycelium dry weight at 80 mg/L incubated for 24 hr prior to transferring mycelium to drug-free MYS medium measured after 6 hr; format: functional
# Botrytis cinerea [5] = assay: Inhibition of respiratory activity in Botryotinia fuckeliana mycelium assessed as rate of oxygen consumption at 100 mg/L by Clark-type oxygen electrode recording analysis in presence of succinate and 2 mM mitochondrial alternative oxidase inhibitor, SHAM; format: functional
# Botrytis cinerea [6] = assay: Depletion of ATP content in Botryotinia fuckeliana mycelium at 80 mg/L after 24 to 48 hr by reverse phase HPLC analysis; format: functional, organism-based
# Botrytis cinerea [7] = assay: Fungicidal activity against Botryotinia fuckeliana grown in liquid medium assessed as inhibition of mycelial growth after 24 hr; format: functional, organism-based
# Botrytis cinerea [8] = assay: Inhibition of respiratory activity in Botryotinia fuckeliana mycelium assessed as rate of oxygen consumption at 100 mg/L by Clark-type oxygen electrode recording analysis in presence of glucose and 2 mM mitochondrial alternative oxidase inhibitor, SHAM; format: functional
# Botrytis cinerea [9] = assay: Fungistatic activity against Botryotinia fuckeliana grown in liquid medium assessed as increase in mycelium dry weight at 80 mg/L incubated for 24 hr prior to transferring mycelium to drug-free MYS medium measured after 12 hr; format: functional
# Botrytis cinerea [10] = assay: Depletion of ATP content in Botryotinia fuckeliana mycelium at 80 mg/L after 6 hr by reverse phase HPLC analysis; format: functional
# Botrytis cinerea [11] = assay: Induction of respiratory activity in Botryotinia fuckeliana mycelium assessed as rate of oxygen consumption at 10 mg/L after 2 min by Clark-type oxygen electrode recording analysis; format: functional
# Botrytis cinerea [12] = assay: Fungicidal activity against Botryotinia fuckeliana grown on PDA medium assessed as inhibition of mycelial growth incubated for 4 to 7 days at 25 degC in presence of 10 mg/L mitochondrial alternative oxidase inhibitor, SHAM; format: functional, organism-based
# Botrytis cinerea [13] = assay: Inhibition of respiratory activity in Botryotinia fuckeliana mycelium assessed as decrease in rate of oxygen consumption at 100 mg/L by Clark-type oxygen electrode recording analysis in presence of glucose (reference value: 0%); format: functional
# Botrytis cinerea [14] = assay: Inhibition of respiratory activity in Botryotinia fuckeliana mycelium assessed as decrease in rate of oxygen consumption at 100 mg/L by Clark-type oxygen electrode recording analysis in presence of succinate (reference value: 0%); format: functional
# Botrytis cinerea [15] = assay: Fungicidal activity against Botryotinia fuckeliana grown on YgA medium assessed as inhibition of mycelial growth incubated for 4 days in the dark at 25 degC in presence of fermentable carbon source, glucose; format: functional, organism-based; conditions: 96 h
# Botrytis cinerea [16] = assay: Fungicidal activity against Botryotinia fuckeliana grown in liquid medium assessed as inhibition of mycelial growth at 80 mg/L after 12 hr; format: functional, organism-based
# Botrytis cinerea [17] = assay: Inhibition of respiratory activity in Botryotinia fuckeliana mycelium assessed as decrease in rate of oxygen consumption at 20 uM by Clark-type oxygen electrode recording analysis in presence of glucose and 2 mM mitochondrial alternative oxidase inhibitor, SHAM (reference value: 0%); format: functional
# Botrytis cinerea [18] = assay: Inhibition of respiratory activity in Botryotinia fuckeliana mycelium assessed as decrease in rate of oxygen consumption at 20 uM by Clark-type oxygen electrode recording analysis in presence of succinate and 2 mM mitochondrial alternative oxidase inhibitor, SHAM (reference value: 0%); format: functional
# Botrytis cinerea [19] = assay: Inhibition of respiratory activity in Botryotinia fuckeliana mycelium assessed as decrease in rate of oxygen consumption at 20 uM by Clark-type oxygen electrode recording analysis in presence of glucose (reference value: 0%); format: functional
# Botrytis cinerea [20] = assay: Inhibition of respiratory activity in Botryotinia fuckeliana mycelium assessed as decrease in rate of oxygen consumption at 20 uM by Clark-type oxygen electrode recording analysis in presence of succinate (reference value: 0%); format: functional
# Botrytis cinerea [21] = assay: Inhibition of respiratory activity in Botryotinia fuckeliana mycelium assessed as decrease in rate of oxygen consumption at 2 mM by Clark-type oxygen electrode recording analysis in presence of succinate (reference value: 0%); format: functional
# Botrytis cinerea [22] = assay: Inhibition of respiratory activity in Botryotinia fuckeliana mycelium assessed as decrease in rate of oxygen consumption at 2 mM by Clark-type oxygen electrode recording analysis in presence of glucose (reference value: 0%); format: functional
compound,measurement,setting,value
C=CCc1ccccc1O [2-ALLYLPHENOL],inhibition at 100 µg/mL,Botrytis cinerea [1],60%
same,inhibition,Botrytis cinerea [2],Active
same,EC50,Botrytis cinerea [3],7.1 µg/mL
same,fold change (FC),Botrytis cinerea [4],0.9
same,inhibition (INH),Botrytis cinerea [5],100%
same,inhibition,Botrytis cinerea [6],Active
same,EC50,Botrytis cinerea [7],25.4 µg/mL
same,inhibition (INH),Botrytis cinerea [8],100%
same,fold change (FC),Botrytis cinerea [9],1.7
same,inhibition at 80 µg/mL,Botrytis cinerea [10],70%
same,Activity,Botrytis cinerea [11],30%
same,growth inhibition (GI),Botrytis cinerea [12],Active
same,inhibition at 100 µg/mL,Botrytis cinerea [13],46%
same,inhibition at 100 µg/mL,Botrytis cinerea [14],48%
same,EC50,Botrytis cinerea [15],22.9 µg/mL
same,inhibition,Botrytis cinerea [16],Active
CCCCCC[C@H]1C(=O)O[C@H](C)[C@H](NC(=O)c2cccc(NC=O)c2O)C(=O)O[C@@H](C)[C@@H]1OC(=O)CC(C)C [ANTIMYCIN A],inhibition (INH),Botrytis cinerea [17],100%
same,inhibition (INH),Botrytis cinerea [18],100%
same,inhibition at 20 µM,Botrytis cinerea [19],77%
same,inhibition at 20 µM,Botrytis cinerea [20],55%
O=C(NO)c1ccccc1O [SALICYLHYDROXAMIC ACID],inhibition at 2000 µM,Botrytis cinerea [21],32%
same,inhibition at 2000 µM,Botrytis cinerea [22],45%

# Source: ChEMBL document CHEMBL3045109, “Inhibitory effect of bionic fungicide 2-allylphenol on Botrytis cinerea (Pers. ex Fr.) in vitro” (Pest Manag Sci, 2009)
